# Test results from PubChem BioAssay AID2060491 (Molecular Pharmacology Branch, DTP, NCI, 2025).
# “And” between values parts separate entries of the source, which are not always exact repeats. Equal values may be shown once.
# Test system: 857933-349-R-J2-PDC complex spheroids, viability
# Experiment: Anticancer human tumor 857933-349-R-J2-PDC patient-derived colon adenocarcinoma cell line growth inhibition [GQUAD]
# Conditions: for viability, T/C: stronger effect = lower value
# Text: DNA G-quadruplex Stabilizer Agents in Combinations in Complex Spheroids
# A high-throughput screen of multi-cell type tumor spheroids was designed to identify active combinations of DNA G-quadruplex stabilizer agents and targeted small molecules. Complex spheroids include a stromal component modeled by human endothelial cells (HUVEC) and fibroblasts modeled by human mesenchymal stem cells (MSCs). The concentration ranges selected for each drug and investigational agent were based upon clinically achievable concentrations if the clinical Cmax of the agent was known.
# Compounds. The drugs and investigational agents: pidnarulex (CX-5461; NSC782164), APTO-253 (NSC789042), BRACO-19 (NSC847499), peposertib (NSC802822), ceralasertib (NSC780249), elimusertib (NSC800525), camonsertib (NSC841442), AZD-1390 (NSC803789), olaparib (NSC753686), talazoparib (NSC767125), ART-558 (NSC835418), sotorasib (NSC818433), MRTX-1133 (NSC836407), SN-38 (NSC673596), topotecan (NSC609699), etoposide (NSC141540), doxorubicin (NSC123127), gemcitabine (NSC613327), 5-fluorouracil (NSC19893), paclitaxel (NSC125973), vemurafenib (NSC761431), panobinostat (NSC761190), R-306465 (JNJ-16241199; NSC773264), adavosertib (NSC754352), TP-3654 (NSC805149), carboplatin (NSC241240), KSQ-4279 (NSC840948), and staurosporine (NSC755774) were obtained from the National Cancer Institute (NCI) Developmental Therapeutics Program Chemical Repository (34). The FDA-approved anticancer drug set is available from the NCI Developmental Therapeutics Program. […] The stock solutions were prepared in dimethyl sulfoxide (DMSO, Sigma-Aldrich, St. Louis, MO, cat. D2650) at 800-fold the tested concentration and stored at -70 degrees C prior to their use. All drugs and investigational agents were tested over a range starting from a high concentration at or near the clinical Cmax and decreasing in half-log increments. If the clinical Cmax for an agent had not been determined, the highest concentration tested was 10 microM.
# 2.3 Cell Culture. All cells were maintained in an incubator at 37 degrees C and 5% CO2 with 95% humidity. The PDC lines were cultured according to standard operating procedures established by the NCI PDMR. All PDCs were thawed and cultured in Matrigel-coated flasks prepared with a working solution of 1X Ham's F-12 nutrient mix, without supplementation (Invitrogen, cat. 11765054), 100 U/mL penicillin-streptomycin (Invitrogen, cat. 15140122), and 2.5% Matrigel (Corning Inc., cat. 354248) for the first three passages. The 857933-349-R-J2-PDC line was cultured in 6C/Colon 1B media, which includes advanced DMEM/F-12 (Thermo Fisher Scientific, cat. 12634028), 10 mM HEPES (Thermo Fisher Scientific, cat. 15630080), 1X GlutaMAX supplement (Thermo Fisher Scientific, cat. 35050061), 0.1 mg/mL primocin (InvivoGen, cat. ant-pm-2), 10% defined fetal bovine serum, heat inactivated (HyClone Laboratories Inc., cat. SH30070.03HI), 50% L-WRN conditioned media (ATCC, cat. CRL-3276), 1.25 mM N-Acetyl-L-cysteine (Sigma-Aldrich, cat. A9165), 10 mM nicotinamide (Sigma-Aldrich, cat. N0636), 1X B-27 supplement (Thermo Fisher Scientific, cat. 17504044), 1X N-2 supplement (Thermo Fisher Scientific, cat. 17502048), 10 microM Y-27632 dihydrochloride (Tocris Bioscience, cat. 1254), and 50 ng/mL human EGF recombinant protein (Thermo Fisher Scientific, cat. PHG0311). The 485176-168-R4-J1-PDC line was cultured in Panc media, which includes all 6C/Colon 1B media components plus 100 ng/mL human FGF-10 (Thermo Fisher Scientific, cat. 100-26), 500 nM SB-431542 (Selleckchem, cat. S1067), and gastrin (Tocris, cat. 3006).
# […]
# [1] = curve of first compound, second compound 0.0316 µM
# [2] = curve of first compound, second compound 0.1 µM
# [3] = curve of first compound, second compound 0.316 µM
# [4] = curve of first compound, second compound 1 µM
# [5] = curve of first compound, second compound 3.16 µM
# [6] = curve of first compound, second compound 10 µM
# [7] = second compound 0.0316 µM, first compound 0.0316 µM
# [8] = second compound 0.0316 µM, first compound 0.1 µM
# [9] = second compound 0.0316 µM, first compound 0.316 µM
# [10] = second compound 0.0316 µM, first compound 1 µM
# [11] = second compound 0.0316 µM, first compound 3.16 µM
# [12] = second compound 0.0316 µM, first compound 10 µM
# [13] = second compound 0.1 µM, first compound 0.0316 µM
# [14] = second compound 0.1 µM, first compound 0.1 µM
# [15] = second compound 0.1 µM, first compound 0.316 µM
# [16] = second compound 0.1 µM, first compound 1 µM
# [17] = second compound 0.1 µM, first compound 3.16 µM
# [18] = second compound 0.1 µM, first compound 10 µM
# [19] = second compound 0.316 µM, first compound 0.0316 µM
# [20] = second compound 0.316 µM, first compound 0.1 µM
# [21] = second compound 0.316 µM, first compound 0.316 µM
# [22] = second compound 0.316 µM, first compound 1 µM
# [23] = second compound 0.316 µM, first compound 3.16 µM
# [24] = second compound 0.316 µM, first compound 10 µM
# [25] = second compound 1 µM, first compound 0.0316 µM
# [26] = second compound 1 µM, first compound 0.1 µM
# [27] = second compound 1 µM, first compound 0.316 µM
# [28] = second compound 1 µM, first compound 1 µM
# [29] = second compound 1 µM, first compound 3.16 µM
# [30] = second compound 1 µM, first compound 10 µM
# [31] = second compound 3.16 µM, first compound 0.0316 µM
# [32] = second compound 3.16 µM, first compound 0.1 µM
# [33] = second compound 3.16 µM, first compound 0.316 µM
# [34] = second compound 3.16 µM, first compound 1 µM
# [35] = second compound 3.16 µM, first compound 3.16 µM
# [36] = second compound 3.16 µM, first compound 10 µM
# [37] = second compound 10 µM, first compound 0.0316 µM
# [38] = second compound 10 µM, first compound 0.1 µM
# [39] = second compound 10 µM, first compound 0.316 µM
# [40] = second compound 10 µM, first compound 1 µM
# [41] = second compound 10 µM, first compound 3.16 µM
# [42] = second compound 10 µM, first compound 10 µM
# 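Note: spheroids exposed to compounds for one week before readout.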
# 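Throughout, for viability, T/C: percent viability relative to vehicle DMSO wells taken as 100%.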
smiles,measurement,setting,value
CC1COCCN1c1cc(C2(O)CC3CCC(C2)O3)c2cnn(-c3ccn[nH]3)c2n1 (stereo not given) + Cc1cnc(CNC(=O)c2c(=O)c3ccc(N4CCCN(C)CC4)nc3n3c2sc2ccccc23)cn1,IC50,[1],< 31.6 nM
same,IC50,[2],< 31.6 nM
same,IC50,[3],< 31.6 nM
same,IC50,[4],< 31.6 nM
same,IC50,[5],< 31.6 nM
same,IC50,[6],< 31.6 nM
same,"viability, T/C",[7],49.9%
same,"viability, T/C",[8],38.6%
same,"viability, T/C",[9],36.8%
same,"viability, T/C",[10],32.6%
same,"viability, T/C",[11],35.3%
same,"viability, T/C",[12],32%
same,"viability, T/C",[13],33%
same,"viability, T/C",[14],30.3%
same,"viability, T/C",[15],21.1%
same,"viability, T/C",[16],28%
same,"viability, T/C",[17],31.8%
same,"viability, T/C",[18],34%
same,"viability, T/C",[19],8.32%
same,"viability, T/C",[20],5.49%
same,"viability, T/C",[21],5.41%
same,"viability, T/C",[22],4.77%
same,"viability, T/C",[23],9.73%
same,"viability, T/C",[24],13.8%
same,"viability, T/C",[25],2.88%
same,"viability, T/C",[26],2.12%
same,"viability, T/C",[27],2.17%
same,"viability, T/C",[28],2.14%
same,"viability, T/C",[29],4.27%
same,"viability, T/C",[30],1.54%
same,"viability, T/C",[31],1.85%
same,"viability, T/C",[32],1.84%
same,"viability, T/C",[33],1.55%
same,"viability, T/C",[34],1.35%
same,"viability, T/C",[35],1.5%
same,"viability, T/C",[36],0.57%
same,"viability, T/C",[37],0.52%
same,"viability, T/C",[38],0.38%
same,"viability, T/C",[39],0.33%
same,"viability, T/C",[40],0.38%
same,"viability, T/C",[41],0.85%
same,"viability, T/C",[42],0.32%
CC(C)(O)C1CCC(Nc2ccc3ncc(-c4cccc(C(F)(F)F)c4)n3n2)CC1 (stereo not given) + Cc1cnc(CNC(=O)c2c(=O)c3ccc(N4CCCN(C)CC4)nc3n3c2sc2ccccc23)cn1,IC50,[1],487 nM
same,IC50,[2],151 nM
same,IC50,[3],< 31.6 nM
same,IC50,[4],< 31.6 nM
same,IC50,[5],< 31.6 nM
same,IC50,[6],< 31.6 nM
same,"viability, T/C",[7],86.5%
same,"viability, T/C",[8],76%
same,"viability, T/C",[9],73.6%
same,"viability, T/C",[10],11.1%
same,"viability, T/C",[11],0.4%
same,"viability, T/C",[12],0.23%
same,"viability, T/C",[13],53.4%
same,"viability, T/C",[14],57.2%
same,"viability, T/C",[15],41.4%
same,"viability, T/C",[16],14%
same,"viability, T/C",[17],0.2%
same,"viability, T/C",[18],0.19%
same,"viability, T/C",[19],16.1%
same,"viability, T/C",[20],12.6%
same,"viability, T/C",[21],8.9%
same,"viability, T/C",[22],7.61%
same,"viability, T/C",[23],0.11%
same,"viability, T/C",[24],0.07%
same,"viability, T/C",[25],3.09%
same,"viability, T/C",[26],3%
same,"viability, T/C",[27],2.95%
same,"viability, T/C",[28],3.84%
same,"viability, T/C",[29],0.05%
same,"viability, T/C",[30],0.07%
same,"viability, T/C",[31],1.54%
same,"viability, T/C",[32],1.85%
same,"viability, T/C",[33],2.05%
same,"viability, T/C",[34],1.16%
same,"viability, T/C",[35],0.11%
same,"viability, T/C",[36],0.12%
same,"viability, T/C",[37],0.23%
same,"viability, T/C",[38],0.19%
same,"viability, T/C",[39],0.3%
same,"viability, T/C",[40],0.28%
same,"viability, T/C",[41],0.22%
same,"viability, T/C",[42],0.21%
C=CC(=O)N1CCN(c2nc(=O)n(-c3c(C)ccnc3C(C)C)c3nc(-c4c(O)cccc4F)c(F)cc23)C(C)C1 (stereo not given),"viability, T/C",compound 0.0316 µM,106% and 112% and 111%
same,"viability, T/C",compound 0.1 µM,94.1% and 102% and 90.6%
same,"viability, T/C",compound 0.316 µM,100% and 107% and 103%
same,"viability, T/C",compound 1 µM,102% and 110% and 106%
same,"viability, T/C",compound 3.16 µM,107% (2×) and 108%
same,"viability, T/C",compound 10 µM,90.5% and 111% and 101%
same,IC50,curve of compound,> 10000 nM
O=C(c1cc(Cc2n[nH]c(=O)c3ccccc23)ccc1F)N1CCN(C(=O)C2CC2)CC1,"viability, T/C",compound 0.0316 µM,99.4% and 111% and 122%
same,"viability, T/C",compound 0.1 µM,104% and 105% and 95.9%
same,"viability, T/C",compound 0.316 µM,90.5% and 106% and 98.7%
same,"viability, T/C",compound 1 µM,92.2% and 107% and 88.4%
same,"viability, T/C",compound 3.16 µM,108% and 98.6% and 97%
same,"viability, T/C",compound 10 µM,101% and 106% and 96%
same,IC50,curve of compound,> 10000 nM
COc1ncnc(C2CC2)c1-c1ncc2cnn(Cc3ccc(-c4nc(C(F)(F)F)cn4C(C)C)cc3)c2n1,"viability, T/C",compound 0.0316 µM,101% and 105% and 104%
same,"viability, T/C",compound 0.1 µM,92.3% and 102% and 96%
same,"viability, T/C",compound 0.316 µM,101% and 105% and 104%
same,"viability, T/C",compound 1 µM,93.7% and 103% and 102%
same,"viability, T/C",compound 3.16 µM,104% and 99.2% and 97.6%
same,"viability, T/C",compound 10 µM,102% and 105% and 103%
same,IC50,curve of compound,> 10000 nM
